Among the data in ChEMBL document CHEMBL5608208, “Design, synthesis of griseofamine A derivatives and development of potent antibacterial agents against MRSA” (Eur J Med Chem, 2024) are MIC values, retold here.

What is called MIC is the lowest concentration found to suppress growth. A low value points to greater potency.

Common to all, as to assay type: functional
Experiment [1] concerns Staphylococcus epidermidis. In words: Antibacterial activity against Staphylococcus epidermidis ATCC 12228 incubated for 18 hrs by serial two-fold dilution method.
In experiment [2] the test system is Staphylococcus aureus. In words: Antibacterial activity against Staphylococcus aureus ATCC 29213 incubated for 18 hrs by serial two-fold dilution method.
Experiment [3] has as its system Staphylococcus aureus. In words: Antibacterial activity against methicillin resistant Staphylococcus aureus ATCC 33592 incubated for 18 hrs by serial two-fold dilution method.

Values after ≈ are worked out from the molar mass of the structure shown.

For `C/C(O)=C1\C(=O)[C@@H]2Cc3c([nH]c4ccccc34)[C@@H](c3ccc(-c4ccc(F)cc4)cc3)N2C1=O`, the MIC stood at 0.125 µg/mL (≈ 0.276 µM) in experiment [1], 0.063 µg/mL (≈ 0.139 µM) in the experiment on Staphylococcus aureus [2] and 0.125 µg/mL (≈ 0.276 µM) in the experiment on Staphylococcus aureus [3].
Turning to `O=C1CC(=O)N2[C@H](c3ccc(-c4ccc(F)cc4)cc3)c3[nH]c4ccccc4c3C[C@@H]12`, the MIC (in experiment [1]; against Staphylococcus aureus [2]; against Staphylococcus aureus [3]) was over 4 µg/mL each time.
As to `O=C1CC(=O)N2[C@H](c3ccc(-c4ccc(C(F)(F)F)cc4)cc3)c3[nH]c4ccccc4c3C[C@@H]12`, the figures for the MIC (in experiment [1]; in the experiment with Staphylococcus aureus [2]; in the experiment on Staphylococcus aureus [3]) were 4 µg/mL (≈ 8.69 µM), over 4 µg/mL and over 4 µg/mL, respectively.
Regarding `C/C(O)=C1\C(=O)[C@@H]2Cc3c([nH]c4ccccc34)[C@@H](c3ccc(-c4ccc(C(F)(F)F)cc4)cc3)N2C1=O`, the MIC in experiment [1] amounted to 0.063 µg/mL (≈ 0.125 µM); with Staphylococcus aureus [2], 0.063 µg/mL (≈ 0.125 µM); in the experiment with Staphylococcus aureus [3] it was 0.25 µg/mL (≈ 0.498 µM).
Turning to `C/C(O)=C1\C(=O)[C@@H]2Cc3c([nH]c4ccccc34)[C@@H](c3ccc(F)cc3)N2C1=O`, the MIC against Staphylococcus aureus [2] worked out at 4 µg/mL (≈ 10.6 µM).
`C/C(O)=C1\C(=O)[C@@H]2Cc3c(n(S(=O)(=O)c4ccc(C)cc4)c4ccccc34)[C@@H](c3ccc(-c4ccc(C)cc4)cc3)N2C1=O`: the MIC in experiment [1] was found to be 2 µg/mL (≈ 3.32 µM); against Staphylococcus aureus [2], 8 µg/mL (≈ 13.3 µM); in the experiment with Staphylococcus aureus [3], 8 µg/mL (≈ 13.3 µM).
Turning to `O=C1CC(=O)N2[C@H](c3ccc(-c4ccc(OC(F)(F)F)cc4)cc3)c3[nH]c4ccccc4c3C[C@@H]12`, the MIC (in experiment [1]; against Staphylococcus aureus [2]; in the experiment with Staphylococcus aureus [3]) was over 4 µg/mL in each case.
As for `CC[C@@H]1c2[nH]c3ccccc3c2C[C@H]2C(=O)/C(=C(\C)O)C(=O)N12`, in the experiment on Staphylococcus aureus [2], the MIC is over 128 µg/mL.
On the same count and under the same terms, the value for `C/C(O)=C1\C(=O)[C@@H]2Cc3c([nH]c4ccccc34)[C@@H](c3cccc(F)c3)N2C1=O` was 8 µg/mL (≈ 21.3 µM); that for `COc1ccc([C@H]2c3[nH]c4ccccc4c3C[C@H]3C(=O)/C(=C(\C)O)C(=O)N23)cc1` was 8 µg/mL (≈ 20.6 µM).
The same measure, in the same setting: then `C/C(O)=C1\C(=O)[C@@H]2Cc3c([nH]c4ccccc34)[C@@H](c3ccccn3)N2C1=O`, with 64 µg/mL (≈ 178 µM); and `C/C(O)=C1\C(=O)[C@@H]2Cc3c([nH]c4ccccc34)[C@@H](c3ccc(F)cc3F)N2C1=O`, with 8 µg/mL (≈ 20.3 µM); and `C/C(O)=C1\C(=O)[C@@H]2Cc3c([nH]c4ccccc34)[C@H](c3ccccc3)N2C1=O`, with 16 µg/mL (≈ 44.6 µM).
The compound `COc1ccc([C@@H]2c3[nH]c4ccccc4c3C[C@H]3C(=O)/C(=C(\C)O)C(=O)N23)cc1` gave an MIC against Staphylococcus aureus [2] of 4 µg/mL (≈ 10.3 µM).
On the same count and under the same terms, the value for `C/C(O)=C1\C(=O)[C@@H]2Cc3c([nH]c4ccccc34)[C@@H](c3ccc(C(C)(C)C)cc3)N2C1=O` was 4 µg/mL (≈ 9.65 µM); that for `C/C(O)=C1\C(=O)[C@@H]2Cc3c([nH]c4ccccc34)[C@@H](Cc3ccccc3)N2C1=O` was 32 µg/mL (≈ 85.9 µM); that for `C/C(O)=C1\C(=O)[C@@H]2Cc3c([nH]c4ccccc34)CN2C1=O` was 128 µg/mL (≈ 453 µM).
On the same count and under the same terms, then `C/C(O)=C1\C(=O)[C@@H]2Cc3c([nH]c4ccccc34)[C@H](c3cccc(F)c3)N2C1=O`, with 32 µg/mL (≈ 85 µM); and `C/C(O)=C1\C(=O)[C@@H]2Cc3c([nH]c4ccccc34)[C@@H](c3ccccc3)N2C1=O`, with 8 µg/mL (≈ 22.3 µM).
Still for that read-out and setting: the value for `C/C(O)=C1\C(=O)[C@@H]2Cc3c([nH]c4ccccc34)[C@@H](c3ccc(C)cc3)N2C1=O` was 4 µg/mL (≈ 10.7 µM); that for `C/C(O)=C1\C(=O)[C@@H]2Cc3c([nH]c4ccccc34)[C@@H](c3ccc4ccccc4c3)N2C1=O` was 8 µg/mL (≈ 19.6 µM).
Turning to `C/C(O)=C1\C(=O)[C@@H]2Cc3c([nH]c4ccccc34)[C@@H](c3ccc(C(F)(F)F)cc3)N2C1=O`, in the experiment on Staphylococcus aureus [2], the MIC was found to be 2 µg/mL (≈ 4.69 µM).
In the case of `C/C(O)=C1\C(=O)[C@@H]2Cc3c([nH]c4ccccc34)[C@H](c3ccc(C(F)(F)F)cc3)N2C1=O`, the MIC with Staphylococcus aureus [2] stood at 16 µg/mL (≈ 37.5 µM).
On the same count and under the same terms, then `COC(=O)[C@@H]1Cc2c([nH]c3ccccc23)[C@@H](C)N1`, with over 128 µg/mL; and `C/C(O)=C1\C(=O)[C@@H]2Cc3c([nH]c4ccccc34)[C@@H](C)N2C1=O`, with over 128 µg/mL.
